Experimental data as given in US9556192B2, “Functionalized 9-bromo-camptothecin derivatives” (NERVIANO MEDICAL SCIENCES S.R.L., priority 2012, dated 2017).
Where a name gives a salt, the structure may show the parent alone. Read-outs that look alike come from different tables or passages of the source.

Assays:
[1] = tested on: A2780 human ovarian cancer cells; assay: In vitro cell proliferation assay (CellTiter-Glo); assay type: cell-based; conditions: 72 h
Procedure: In Vitro Cell Proliferation Assay
A2780 human ovarian and MCF7 human breast cancer cells (1250 cells/well) were seeded in white 384 well-plates in complete medium (RPMI1640 or EMEM plus 10% Fetal bovine serum) and treated with compounds dissolved in 0.1% DMSO, 24 h after seeding. The cells were incubated at 37° C. and 5% CO2 and after 72 h the plates were processed using CellTiter-Glo assay (Promega) following the manufacturers instructions.
CellTiter-Glo is a homogenous method based on the quantification of the ATP present, an indicator of metabolically active cells. ATP is quantified using a system based on luciferase and D-luciferin resulting into light generation. The luminescent signal is proportional to the number of cells present in culture.
Briefly, 25 μL/well of reagent solution are added to each well and after 5 min shaking microplates are read by a luminometer. The luminescent signal is proportional to the number of cells present in culture.

[2] = Elimination of self-immolative group at pH 7.4 (HPLC/MS); assay type: physicochemical; conditions: pH 7.4 (Tris-HCl buffer), room temperature, 1 h
Procedure: (§1) The conjugate A1 was incubated with 0.2 units of cathepsin B in sodium acetate buffer pH 5.5 and 1 mM Cys for 2 h at 40° C. Then pH was adjusted to 7.4 by addition of Tris-HCl buffer and maintained at room temperature for 1 h.

[3] = target: cathepsin B (Homo sapiens, UniProt P07858); assay: Release of a drug moiety from conjugate in presence of cathepsin B; assay type: biochemical; conditions: 0.2 units cathepsin B, sodium acetate buffer pH 5.5, 1 mM Cys, 2 h at 40° C.
Procedure: As an example, that is not intended to limit the scope of the invention, the release of a compound of formula (I) from the conjugate was performed in presence of cathepsin as reported below.
as §1

[4] = read-out: IC50 value in A2780 human ovarian cancer cells

**Q.** Which IC50 ([1]; read-out: A2780 (IC50 nM)) does the source give for CC[C@@]1(O)C(=O)OCc2c1cc1n(c2=O)Cc2cc3c(Br)cccc3nc2-1 [9-bromo-camptothecin] here?
**A.** The IC50 was 1.62 nM.

**Q.** For CC[C@@]1(OC(=O)CC2(CN)CCCCC2)C(=O)OCc2c1cc1n(c2=O)Cc2cc3c(Br)cccc3nc2-1.Cl [Comp. 11], which “Release of 9-bromo-camptothecin by elimination of the self-immolative group W” value [2] is on record?
**A.** The value was “elimination of the self-immolative group W”.

**Q.** With CC[C@@]1(OC(=O)CNC(=O)[C@H](CC(C)C)NC(=O)[C@@H](N)Cc2ccccc2)C(=O)OCc2c1cc1n(c2=O)Cc2cc3c(Br)cccc3nc2-1 [Comp. 2, (4S)-10-bromo-4-ethyl-3,14-dioxo-3,4,12,14-tetrahydro-1H-pyrano[3′,4′:6,7]indolizino[1,2-b]quinolin-4-yl L -phenylalanyl-L-leucylglycinate] as the compound, how does the IC50 ([1]; read-out: A2780 (IC50 nM)) read?
**A.** The IC50 was 1.56 nM.

**Q.** And the IC50 [1, 4]?
**A.** The IC50 was less than 10 nM.

**Q.** With CC[C@@]1(OC(=O)CC2(CNC(=O)[C@@H](CCCNC(N)=O)NC(=O)[C@@H](NC(=O)CCCCCN3C(=O)CC(N[C@H](C=O)CS)C3=O)C(C)C)CCCCC2)C(=O)OCc2c1cc1n(c2=O)Cc2cc3c(Br)cccc3nc2-1 (stereo partly shown) [conjugate A1] as the compound, how does the “Cleavage of the Z peptidic linker of the conjugate with release of Comp. 11” value [3] read?
**A.** Its value is “Partial disappearance”.

**Q.** Which results are given for CC[C@@]1(OC(=O)CN)C(=O)OCc2c1cc1n(c2=O)Cc2cc3c(Br)cccc3nc2-1 [Comp. 1, (4S)-10-bromo-4-ethyl-3,14-dioxo-3,4,12,14-tetrahydro-1H-pyrano[3′,4′6,7]indolizino[1,2-b]quinolin-4-yl glycinate hydrochloride]?
**A.** IC50 ([1]; read-out: A2780 (IC50 nM)): 0.97 nM; IC50 [1, 4]: < 10 nM
